Measured values: patent publication US20230286969A1, “AROMATIC SPIRO RING AMIDE DERIVATIVES FOR THE TREATMENT AND PROPHYLAXIS OF HEPATITIS B VIRUS INFECTION” (Hoffmann-La Roche Inc., priority 2020, published 2023)

Assays:
Format in all cases: cell-based
HBsAg = experiment: PHH HBV natural infection assay, HBsAg (alphalisa); details: Hepatitis B virus, Hepatocyte, 72 h, read-out: HBsAg IC50, HBV-infected primary human hepatocytes, supernatant, compound medium refreshed two times with 72-hour interval
Experimental: (§1) Detailed procedures regarding primary human hepatocyte (PHH) HBV natural infection assay are described as below. One tube of frozen PHH (10 million cells) is thawed in 37° C. water bath and then transferred to 20 mL of PHH thawing medium (Sigma, InVitroGRO HT Medium, Cat. S03319) with gently mixing. The cells were then centrifuged at […] for 5 min, the supernatant was discarded and the tube was refilled with 25 mL of PHH plating medium (Sigma, InVitroGRO CP Medium, Cat. S03317). The tube was shaken very gently to re-suspend all cells, and then 50 μl of cells were transferred to each well 384-well collagen I coated plate with appropriate liquid handling equipment, e.g. Integra VIAFLO384 or Agilent Bravo. The cells were then cultured for 24 hours in a cell incubator. For HBV infection, after PHH attachment on the culture plate, the plating medium was removed and replenished with PHH culture medium containing HBV virus. The PHH culture medium was prepared with Dulbecco's Modified Eagle Medium (DMEM)/F12 (1:1 in volume ratio) containing 10% fetal bovine serum (Gibco, Cat. 10099141), 5 ng/mL human epidermal growth factor (Gibco, Cat.PHG0311L), 20 ng/mL dexamethasone (Sigma, Cat.D4902-100 mg), 250 ng/mL human recombinant insulin (Gibco, Cat.41400045) and 100 U/mL penicillin. HBV virus at 200 genome equivalent (GE) per cell with 4% PEG8000 (Sigma, Cat.P1458) containing culture medium were added to the PHH culture medium for infection. The cells were then cultured for 24 hours in cell incubator. Then the cell culture supernatant was removed. The HBV-infected PHH were cultured with sandwich culture method with PHH culture medium containing 1% DMSO and 0.25 mg/mL matrix gel for 72 hours. The supernatant was then refreshed with PHH culture medium containing different concentrations of testing compounds for two times with 72-hour interval. At the end of treatment, the supernatant was collected for viral markers measurements, including HBsAg, HBeAg, HBV DNA and cytotoxicity. HBsAg and HBeAg were detected using alphalisa method using their specific antibodies. For HBV DNA detection, HBV DNA Quantitative Fluorescence Diagnostic Kit (Sansure Biotech Inc.) was used following the manufacture's protocol. Cytotoxicity was determined using Cell Counting Kit-8 (CCK8, Dojindo Molecular Technologies, Inc.).
(§2) The compounds of the present invention were tested for their capacity to inhibit HBsAg and HBeAg as described herein.

HBeAg = experiment: PHH HBV natural infection assay, HBeAg (alphalisa); details: Hepatitis B virus, Hepatocyte, 72 h, read-out: HbeAg IC50, HBV-infected primary human hepatocytes, supernatant, compound medium refreshed two times with 72-hour interval
Experimental: as §1, §2

[1] = PHH natural infection assay, cytotoxicity (Cell Counting Kit-8); details: human, HBV-infected primary human hepatocytes, CCK8, end of treatment
Experimental: as §1

| Structure (SMILES) | IC50 (HBsAg) | IC50 (HBeAg) | CC50 at 144 h [1] |
| --- | --- | --- | --- |
| O=C(NC1CC2(C1)CC(c1nc3cc(Cl)ccc3o1)C2)c1ccc(S(=O)(=O)CC2COC2)o1 (stereo not drawn) [Example 24, N-[6-(5-chloro-1,3-benzoxazol-2-yl)spiro[3.3]heptan-2-yl]-5-(oxetan-3-ylmethylsulfonyl)furan-2-carboxamide] | 2.44 µM | 2.33 µM | 95.3 µM |
| CN1CC(CS(=O)(=O)c2ccc(C(=O)NC3CC4(C3)CC(c3nc5cc(Cl)ccc5o3)C4)o2)C1 (stereo not drawn) [Example 25, N-[6-(5-chloro-1,3-benzoxazol-2-yl)spiro[3.3]heptan-2-yl]-5-[(1-methylazetidin-3-yl)methylsulfonyl]furan-2-carboxamide] | 4.19 µM | 3.73 µM | > 10 µM |
| O=C(NC1CC2(C1)CC(c1nc3cc(Cl)ccc3o1)C2)c1ccc(S(=O)(=O)CC2CN(C(=O)OCc3ccccc3)C2)o1 (stereo not drawn) [Example 26, benzyl 3-[[5-[[6-(5-chloro-1,3-benzoxazol-2-yl)spiro[3.3]heptan-2-yl]carbamoyl]-2-furyl]sulfonylmethyl]azetidine-1-carboxylate] | 0.365 µM | 0.329 µM | > 100 µM |
| O=C(NC1CC2(C1)CC(c1nc3cc(Cl)ccc3o1)C2)c1ccc(S(=O)(=O)CC2CC(F)(F)C2)o1 (stereo not drawn) [Example 27, N-[6-(5-chloro-1,3-benzoxazol-2-yl)spiro[3.3]heptan-2-yl]-5-[(3,3-difluorocyclobutyl)methylsulfonyl]furan-2-carboxamide] | 0.152 µM | 0.116 µM | > 100 µM |
| COCCS(=O)(=O)c1ccc(C(=O)NC2CC3(C2)CC(c2nc4cc(Cl)ccc4o2)C3)o1 (stereo not drawn) [Example 28, N-[6-(5-chloro-1,3-benzoxazol-2-yl)spiro[3.3]heptan-2-yl]-5-(2-methoxyethylsulfonyl)furan-2-carboxamide] | 0.758 µM | 0.509 µM | 94.2 µM |
| NS(=O)(=O)c1ccc(C(=O)NC2CC3(C2)CC(c2nc4cc(Cl)ccc4o2)C3)o1 (stereo not drawn) [Example 29, N-[6-(5-chloro-1,3-benzoxazol-2-yl)spiro[3.3]heptan-2-yl]-5-sulfamoyl-furan-2-carboxamide] | 0.534 µM | 0.509 µM | 94.2 µM |
| CS(=O)(=O)Cc1ccc(C(=O)NC2CC3(C2)CC(c2nc4cc(Cl)ccc4o2)C3)o1 (stereo not drawn) [Example 30, N-[6-(5-chloro-1,3-benzoxazol-2-yl)spiro[3.3]heptan-2-yl]-5-(methylsulfonylmethyl)furan-2-carboxamide] | 3.97 µM | 2.17 µM | > 100 µM |
| O=C(NC1CC2(C1)CC(c1nc3cc(Cl)ccc3o1)C2)c1ccc(CS(=O)(=O)C2CC2)o1 (stereo not drawn) [Example 31, N-[6-(5-chloro-1,3-benzoxazol-2-yl)spiro[3.3]heptan-2-yl]-5-(cyclopropylsulfonylmethyl)furan-2-carboxamide] | 7.56 µM | 6.98 µM | > 100 µM |
| CS(=O)(=O)CCc1ccc(C(=O)NC2CC3(C2)CC(c2nc4cc(Cl)ccc4o2)C3)o1 (stereo not drawn) [Example 32, N-[6-(5-chloro-1,3-benzoxazol-2-yl)spiro[3.3]heptan-2-yl]-5-(2-methylsulfonylethyl)furan-2-carboxamide] | 4.94 µM | 3.15 µM | > 100 µM |
| NS(=O)(=O)Cc1ccc(C(=O)NC2CC3(C2)CC(c2nc4cc(Cl)ccc4o2)C3)o1 (stereo not drawn) [Example 33, N-[6-(5-chloro-1,3-benzoxazol-2-yl)spiro[3.3]heptan-2-yl]-5-(sulfamoylmethyl)furan-2-carboxamide] | 1.41 µM | 1.39 µM | > 100 µM |
| NS(=O)(=O)CCc1ccc(C(=O)NC2CC3(C2)CC(c2nc4cc(Cl)ccc4o2)C3)o1 (stereo not drawn) [Example 34, N-[6-(5-chloro-1,3-benzoxazol-2-yl)spiro[3.3]heptan-2-yl]-5-(2-sulfamoylethyl)furan-2-carboxamide] | 8.78 µM | 5.84 µM | > 100 µM |
| NS(=O)(=O)NCc1ccc(C(=O)NC2CC3(C2)CC(c2nc4cc(Cl)ccc4o2)C3)o1 (stereo not drawn) [Example 35, N-[6-(5-chloro-1,3-benzoxazol-2-yl)spiro[3.3]heptan-2-yl]-5-[(sulfamoylamino)methyl]furan-2-carboxamide] | 7.81 µM | 6.53 µM | 98.3 µM |
| CCS(=O)(=O)c1oc(C(=O)NC2CC3(C2)CC(c2nc4cc(Cl)ccc4o2)C3)cc1Br (stereo not drawn) [Example 36, 4-bromo-N-[6-(5-chloro-1,3-benzoxazol-2-yl)spiro[3.3]heptan-2-yl]-5-ethylsulfonyl-furan-2-carboxamide] | 0.885 µM | 0.815 µM | > 100 µM |
| CCS(=O)(=O)c1cc(C)c(C(=O)NC2CC3(C2)CC(c2nc4cc(Cl)ccc4o2)C3)o1 (stereo not drawn) [Example 37, N-[6-(5-chloro-1,3-benzoxazol-2-yl)spiro[3.3]heptan-2-yl]-5-ethylsulfonyl-3-methyl-furan-2-carboxamide] | 9.38 µM | 5.72 µM | > 100 µM |
| CC(C)(C)[S+]([O-])c1ccc(C(=O)NC2CC3(C2)CC(c2nc4cc(Cl)ccc4o2)C3)o1 (stereo not drawn) [Example 38, 5-tert-butylsulfinyl-N-[6-(5-chloro-1,3-benzoxazol-2-yl)spiro[3.3]heptan-2-yl]furan-2-carboxamide] | 0.526 µM | 0.317 µM | 96.3 µM |
| CC(C)(C)S(=O)(=O)c1ccc(C(=O)NC2CC3(C2)CC(c2nc4cc(Cl)ccc4o2)C3)o1 (stereo not drawn) [Example 39, 5-tert-butylsulfonyl-N-[6-(5-chloro-1,3-benzoxazol-2-yl)spiro[3.3]heptan-2-yl]furan-2-carboxamide] | 0.96 µM | 0.603 µM | > 10 µM |
| O=C(NC1CC2(C1)CC(c1nc3cc(Cl)ccc3o1)C2)c1ccc([S+]([O-])C2CC2)o1 (stereo not drawn) [Example 40, N-[6-(5-chloro-1,3-benzoxazol-2-yl)spiro[3.3]heptan-2-yl]-5-cyclopropylsulfinyl-furan-2-carboxamide] | 0.084 µM | 0.067 µM | > 10 µM |
| O=C(NC1CC2(C1)CC(c1nc3cc(Cl)ccc3o1)C2)c1ccc(SC(F)(F)F)o1 (stereo not drawn) [Example 41, N-[6-(5-chloro-1,3-benzoxazol-2-yl)spiro[3.3]heptan-2-yl]-5-(trifluoromethylsulfanyl)furan-2-carboxamide] | 8.47 µM | 6.62 µM | > 100 µM |
| O=C(NC1CC2(C1)CC(c1nc3cc(Cl)ccc3o1)C2)c1ccc([S+]([O-])C(F)(F)F)o1 (stereo not drawn) [Example 42, N-[6-(5-chloro-1,3-benzoxazol-2-yl)spiro[3.3]heptan-2-yl]-5-(trifluoromethylsulfinyl)furan-2-carboxamide] | 1.52 µM | 1.41 µM | 96.2 µM |
| O=C(NC1CC2(C1)CC(c1nc3cc(Cl)ccc3o1)C2)c1ccc(S(=O)(=O)C(F)(F)F)o1 (stereo not drawn) [Example 43, N-[6-(5-chloro-1,3-benzoxazol-2-yl)spiro[3.3]heptan-2-yl]-5-(trifluoromethylsulfonyl)furan-2-carboxamide] | 1.14 µM | 0.839 µM | > 100 µM |
| CC(C)S(=O)(=O)Cc1ccc(C(=O)NC2CC3(C2)CC(c2nc4cc(Cl)ccc4o2)C3)o1 (stereo not drawn) [Example 44, N-[6-(5-chloro-1,3-benzoxazol-2-yl)spiro[3.3]heptan-2-yl]-5-(isopropylsulfonylmethyl)furan-2-carboxamide] | 1.8 µM | 1.55 µM | 95.8 µM |
